Data from US7399763B2, “8-hydroxy-1-oxo-tetrahydropyrrolopyrazine compounds useful as HIV integrase inhibitors” (Merck & Co., Inc., priority 2002, dated 2008).

Tested on: HIV
Test: Assay for inhibition of HIV replication (acute HIV infection of T-lymphoid cells)
Type: cell-based
Settings: Human immunodeficiency virus 1, per Vacca et al. 1994
Procedure: Assay for Inhibition of HIV Replication
Assays for the inhibition of acute HIV infection of T-lymphoid cells were conducted in accordance with Vacca, J. P. et al., Proc. Natl. Acad. Sci. USA 1994, 91: 4096.

SMILES | IC95 [µM]
CCOC(=O)c1cn2c(c1O)C(=O)N(Cc1ccccc1)CC2 [Example 1, Ethyl 2-benzyl-8-hydroxy-1-oxo-1,2,3,4-tetrahydropyrrolo[1,2-α]pyrazine-7-carboxylate] | ≤ 20
CCOC(=O)c1cn2c(c1O)C(=O)N(Cc1ccc(F)cc1)CC2 [Example 3, Ethyl 2-(4-fluorobenzyl)-8-hydroxy-1-oxo-1,2,3,4-tetrahydropyrrolo[1,2-]pyrazine-7-carboxylate] | ≤ 20
CNC(=O)c1cn2c(c1O)C(=O)N(Cc1ccc(F)cc1)CC2 [Example 5, 2-(4-Fluorobenzyl)-8-hydroxy-N-methyl-1-oxo-1,2,3,4-tetrahydropyrrolo[1,2α]pyrazine-7-carboxamide] | ≤ 20
CCNC(=O)c1cn2c(c1O)C(=O)N(Cc1ccc(F)cc1)CC2 [Example 6] | ≤ 20
O=C(NC1CC1)c1cn2c(c1O)C(=O)N(Cc1ccc(F)cc1)CC2 [Example 7, 2-(4Fluorobenzyl)-8-hydroxy-N-cyclopropyl-1-oxo-1,2,3,4-tetrahydropyrrolo[1,2α]pyrazine-7-carboxamide] | ≤ 20
CCOC(=O)c1cn2c(c1O)C(=O)N(Cc1cccc(Cl)c1)CC2 [Example 8, Ethyl 2(3-chlorobenzyl)-8-hydroxy-1-oxo-1,2,3,4-tetrahydropyrrolo[1,2-α]pyrazine-7-carboxylate] | ≤ 20
CN1CCn2cc(C(=O)NCc3ccc(F)cc3)c(O)c2C1=O [Example 10, N-(4-Fluorobenzyl)-8-hydroxy-2-methyl-1-oxo-1,2,3,4-tetrahydropyrrolo[1,2-α]pyrazine-7-carboxamide] | ≤ 20
CNC(=O)c1cn2c(c1O)C(=O)N(Cc1ccc(Cl)cc1)CC2 [Example 16, 2-(4-Chlorobenzyl)-8-hydroxy-N-methyl-1-oxo-1,2,3,4-tetrahydropyrrolo[1,2-α]pyrazine-7-carboxamide] | ≤ 20
CNC(=O)c1cn2c(c1O)C(=O)N(Cc1ccc(F)c(F)c1)CC2 [Example 17, 2-(3,4-Difluorobenzyl)-8-hydroxy-N-methyl-1-oxo-1,2,3,4-tetrahydropyrrolo[1,2-α]pyrazine-7-carboxamide] | ≤ 20
